Data set [1] in a line: MTLP peptide stability in serum over time (HPLC-UV). The data set is classed as in vitro ADME, mouse. Particulars: 37° C.; for stability in mouse serum (recovery by HPLC-UV): 1 mg/mL peptide + equal volume mouse serum, 10-120 min. Here is the method:
The MTLP peptide solutions were prepared at 1 mg/mL and 20 μL aliquots placed in tubes. To one set of tubes an equal volume of mouse serum was added and to a second set 0.9% saline solution was added as negative a control. The tubes were incubated at 37° C. A control and a sample tube were removed at various timepoints (10, 30, 60 and 120 min) and any reaction quenched using 70:30 acetonitrile:water (160 μL). Each quenched sample was then analysed by HPLC-UV at 220 nm with a C18 column (5 μm, 300Å, 250×4.6 mm id) for 45 minutes. Mobile phase A was 10:90 acetonitrile: 0.1% trifluoroacetic acid in water and mobile phase B was 0.1% trifluoroacetic acid in acetonitrile.

In data set [2] the target is LHRH receptor on MDA-MB-231, SKOV3-IP1 and H-69 cells (human) (UniProt P30968). As to the kind of experiment: cell-based or functional assay.
Chain of LHRH receptor on MDA-MB-231, SKOV3-IP1 and H-69 cells (human) (P30968 whole entry): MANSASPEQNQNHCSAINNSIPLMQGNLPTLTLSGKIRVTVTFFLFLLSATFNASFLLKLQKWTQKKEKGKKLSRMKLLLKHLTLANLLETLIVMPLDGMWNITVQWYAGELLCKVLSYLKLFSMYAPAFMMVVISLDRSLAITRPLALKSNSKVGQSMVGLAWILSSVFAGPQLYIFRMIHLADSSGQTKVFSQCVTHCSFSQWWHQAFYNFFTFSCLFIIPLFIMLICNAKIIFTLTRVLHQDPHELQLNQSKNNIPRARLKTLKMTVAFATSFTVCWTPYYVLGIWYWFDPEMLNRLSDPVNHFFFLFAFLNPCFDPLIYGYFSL
Another data set relates to HepSK1 cells. As to the kind of experiment: In vitro transfection (luciferase expression). The class given is cell-based, human. To be noted: Hep-SK 1 (non-ASGPR), 100 μM ligand, 1 μg DNA. On the procedure: (§1) For in vitro cell testing of the galactosylated peptides, the following cell lines were used: HepG2 (ATCC, Manassas, Va.): Hepatocarcinoma cell line expressing the asialyglycoprotein (ASGP) receptor. […] These two cell lines were tested for the presence of the ASGP receptor by westen blotting with an anti-asialoglycoprotein receptor antibody from Calbiochem (Nottingham, UK). This confirmed the presence of the receptor in HepG2 cells and the absence of the receptor from Hep-SK1 cells (data not shown).
(§2) The formulations were incubated with the cells for 4 h, at which point the formulations were aspirated and fresh serum containing complete medium was added to the cells. Cells were harvested 48 h post transfection and were assayed for total cell protein expression and luciferase reporter gene expression. […] Thus, multifunctional targeting factors such as galactose-Elan094 (SEQ ID NO:6) can increase transfection activity over a single fimctional targeting factor.
In vitro cell transfections were carried out as described supra in a number of cell types. […] The results for two different cell types, a human liver cell line (HepSK1) and a human breast cell line (MDA-MB-231), are shown in Tables 7 and 8.

The next data set concerns HepG2 cells. As to the kind of experiment: In vitro transfection (luciferase expression). The data set is classed as cell-based. To be noted: for transfection with DC-Chol:DOPE LPDs containing ligand: HepG2 (ASGPR bearing), 100 μM ligand, 1 μg DNA. On the procedure:
16-24 hr prior to transfection, 5×10^4 cells (MDA-MB-231, LL/2 or HepG-2 (ATCC, Manassas, Va.)) in 500 μl/well of appropriate media (ATCC catalog describes appropriate media for each cell type) containing 10% FBS were seeded in a 48 well plate (Costar, Coming, N.Y.) and incubated overnight at 37° C. in 5% or 10% CO2. The following day, the media was removed and replaced with 500 μl of fresh serum-free media. […] After transfection, luciferase activity was assayed as described (Promega Luciferase Assay Kit, Cat. No. E1501, Madison, Wis.). Briefly, the cell culture media was removed and replaced by fresh media containing 10% FBS, and the cells were incubated at 37° C. in 5% or 10% CO2 for a further 48 h. Each well was washed with 1 ml PBS 0.095 M pH7.4 (Biowhittaker, Walkersville, Md.) and suspended in 200 μl of 1× luciferase reporter buffer (RLB) (Promega, Madison, Wis.). The cells were then subject to 3 cycles of freeze/thaw at −70° C./37° C., respectively. Cells were harvested and spun for 10 min at 14,000 rpm. 20 μl of the supernatant was assayed for luciferase activity by addition of 100 μl of luciferase substrate (Promega, Madison, Wis.), followed by a 10 sec incubation time at room temperature before luminescence relative units were measured using a Berthold (Aliquippa, Pa. autolumat B953 luminometer. The total protein concentration per sample was determined using a commercial kit of Coomassie plus dye (Pierce, Rockford, Ill.).
as §1, §2

The subject of data set [3] is KB cells. As to the kind of experiment: Effect of lysomotrophic agent on PPAA-mediated transfection. The data set is classed as cell-based. Particulars: added half an hour prior to LPD. On the procedure: Lysomotrophic agent, either chloroquine (an anti-malarial drug, weak base protonated in endosome) or bafilomycin A (a specific ATPase inhibitor which reduces the amount of protons entering the endosome), capable of preventing endosomal acidification, were added in varying amounts to the transfection mixture half and hour prior to LPD addition to the cells.

For data set [4], the system named is KB cells. As to the kind of experiment: In vitro transfection (luciferase expression). The data set is classed as cell-based. To be noted: 1 μg DNA/well. On the procedure: The following day, the media was removed and replaced with 500 μl of fresh serum-free media.
The subject of another data set is MDA-MB-231 cells. Description: Competition assays of ligand-mediated transfection. The class given is cell-based, human. Particulars: 0.1 μg DNA/well; for effect of 1000-fold excess of free peptide on DSPE-PEG5K-RGD mediated transfection: 10 mol % DSPE-PEG5K-RGD LPD. On the procedure:
Three competitions assays were performed using MDA-MB-231 cells in order to assess specificity of transfection-mediated-[…] (SEQ ID NO:10) or DSPE-PEG5K-RGD (SEQ ID NO:11). Transfections were performed as described above except that the culture media was supplemented with free LHRH or RGD peptides, or antibody against the LHRH or the integrin receptor as competition agents. 10 mol % pegylated lipid or targeting factor-pegylated lipid conjugate was used for each experiment.
The first competition assay was performed using 1 μg DNA/well. This DNA concentration required a high concentration of free LHRH to achieve a 100 fold excess of free LHRH which was toxic for the cells. Similarly, with the RGD formulation, this DNA concentration required a high concentration of free RGD in order to achieve 100 fold excess of free RGD (3.25 μl of dansyl-labeled RGD ((Integrated Biomolecule Corporation, Tucson, Ariz.) from a solution at 5 mg/ml in H2O) which was toxic for the cells.
In order to decrease LHRH associated toxicity, a second competition assay was performed using 0.1 μg DNA/well (FIGS. 6A and 6B). 0.1 μg DNA/well corresponds to 862.62 ng DSPE-PEG5K-LHRH (SEQ ID NO:10) or 168.6 ng of LHRH/well using a 12 nmol:1 μg lipid:DNA ratio and 10 mol % DSPE-PEG5K-LHRH (SEQ ID NO:10) in the total lipids in the formulation. Transfections were performed as described above. The second competition assay was performed using 17.5 μg/well (5 μl) of anti-LHRH receptor F1G4, and 15 μg/well (50 μl) of anti-LHRH receptor A9E4 from Biogenesis (Kingston, N.H.). The appropriate isotype match antibody (17.5 μg/well), anti-CD3 IgG1K (Pharmingen, San Diego, Calif.), was used as a control. Additionally, a 100-fold and 1000 fold excess of LHRH was tested as a competition agent: the media was supplemented with 6.5 μl or 65 μl of a stock solution of 2.5 mg/ml of [D-Trp]-LHRH from Sigma (St. Louis, Mo.). Moreover, in this particular experiment, 2 anti-LHRH receptor polyclonal serums were tested: 5 μl/well of a rabbit serum anti-LHRH receptor (Biogenesis, Kingston, N.H.) and 50 μl/well sheep serum anti-LHRH receptor (Biogenesis, Kingston, N.H.). The corresponding volumes of control serum were used as an isotype control. Control serums were purchased from Sigma (St. Louis, Mo.).
LPDs were also directly incubated with an anti-LHRH antibody or an isotype control (Anti-IgG) antibody before addition of LPDs to cells in order to block the LHRH molecule on the LPD surface (data not shown). Briefly, 6.67 μl of 1/10 diluted DSPE-PEG5K-LHRH LPDs at 150 μg DNA/ml were mixed with 50 μl of mouse anti-LHRH antibody or control (Dako Corporation, Carpinteria, Calif.) and incubated for 1 h at room temperature prior to transfection as described above. […]

Non-standard residues stand in square brackets, D forms with d. Residues, ends and D or L forms follow the SMILES beside them. No end group written: not given here. Bounds are passed on as bounds.

As to H-KKKAAAVLLPVLLAAP [ZElan094], in data set [1], the “stability in mouse serum (recovery by HPLC-UV)” value is “degrades in mouse serum over 2 hr”, the “ligand still detectable at 30 minutes following incubation in mouse serum” value is recorded as “up to 60%” and the “start of degradation in mouse serum” value is above 10 min. Consider “[D-Trp]-LHRH from Sigma (from UniProt P01148 24-33) (peptide)”, for which the luciferase expression in MDA-MB-231 cells after transfection with LPDs containing 10 mol % DSPE-PEG5K-LHRH, free LHRH in the medium as competition agent in data set [2] came out at 1000 fold. For S(Galactose)KKAAAVLLPVLLAAP [GElan094], the results for the “transfection with DC-Chol:DOPE LPDs containing ligand” value in the data set on HepSK1 cells and in the data set on HepG2 cells were “no increase in transfection” and “Increased transfection”, respectively. Take `CO/C1=C\C(C)=C\[C@@H](C)[C@@H](O)[C@@H](C)C/C(C)=C/C=C/[C@H](OC)[C@@H]([C@@H](C)[C@@H](O)[C@H](C)[C@@]2(O)C[C@@H](O)[C@H](C)[C@@H](C(C)C)O2)OC1=O` [Bafilomycin A, bafilomycin A]: the “effect on PPAA-mediated transfection” value with KB cells [3] (10 ng/well) was “appeard to block PPAA-mediated transfection”. Turning to RRRRRRRH, in the data set with KB cells [4], the “increase in transfection activity when formulated with CHEMS:DOPE compared to peptide-compacted DNA alone” value is on record as 2 fold. For the compound “des-Pro-KKAAAVLLPVLLAAS-Galactose [Elan094G]”, the results for the “transfection with DC-Chol:DOPE LPDs containing ligand” value in the data set on HepSK1 cells and with HepG2 cells were “no increase in transfection” and “Increased transfection”, respectively. The “dose giving optimal transfection” value with HepG2 cells (DC-chol:DOPE LPDs, dose titration (FIG. 14)) was found to be 50 µM. Take “LHRH: free LHRH used as competition agent, [D-Trp]-LHRH from Sigma (QHWSYGLRPG; not fully specified (residue 1, C-terminus); ends and bridges not checked; also: D-Trp, position not given here)”: in the data set on MDA-MB-231 cells (10 mol % DSPE-PEG5K-LHRH LPD), the “effect of 1000-fold excess of free LHRH on DSPE-PEG5K-LHRH mediated transfection” value is given as “clear inhibition of transfection activity”.

With GRGESP, in the data set on MDA-MB-231 cells, the “effect of 1000-fold excess of free peptide on DSPE-PEG5K-RGD mediated transfection” value is reported as “did not inhibit transfection activity”. As to “H2N-KKKAAAVLLPVLLAAPREDL (H-KKKAAAVLLPVLLAAPREDL) [ZElan094R]”, the “transfection with DC-Chol:DOPE LPDs containing ligand” value in the data set on HepSK1 cells is recorded as “no increase in transfection”; in the data set with HepG2 cells it was “Increased transfection”.

In the case of GRGDNP, the “effect of 1000-fold excess of free peptide on DSPE-PEG5K-RGD mediated transfection” value in the data set on MDA-MB-231 cells was “inhibition of transfection activity”. As for `CCN(CC)CCCC(C)Nc1ccnc2cc(Cl)ccc12` (stereo not shown) [Chloroquine, chloroquine], the “effect on PPAA-mediated transfection” value in the data set on KB cells [3] (1600 nM) is “blocked PPAA-mediated transfection”.

On to `CC(C)C[C@@H](NC(=O)[C@@H](CC(C)C)NC(=O)[C@H](NC(=O)[C@H]1CCCN1C(=O)[C@@H](CC(C)C)NC(=O)[C@@H](CC(C)C)NC(=O)[C@H](NC(=O)[C@@H](C)NC(=O)[C@@H](C)NC(=O)[C@@H](CCCCN)NC(=O)[C@@H](CCCCN)NC(=O)[C@H](N)CCCCN)C(C)C)C(C)C)C(=O)N[C@H](C)C(=O)N[C@H](C)C(=O)N1CCC[C@@H]1C(=O)O` [ZElan207, H2N-kkkaavllpvllaap] (H-[dK][dK][dK][dA][dA][dV][dL][dL][dP][dV][dL][dL][dA][dA][dP]-OH; C-terminus assumed), for which the “stability in mouse serum (recovery by HPLC-UV)” value in data set [1] is recorded as “stable in mouse serum up to 2 h”. With GRGDSP, in the data set with MDA-MB-231 cells, the “effect of 1000-fold excess of free peptide on DSPE-PEG5K-RGD mediated transfection” value is “inhibition of transfection activity”.
